# How the values were obtained:
# Test in all cases: relative viability (nuclei count vs DMSO), 5 days (fraction); higher = more cells survive
# ABC-1 = tested on: ABC-1
# Outline: (§1)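 Lung cancer cell lines in 1536-well plates were dosed by pin tool the day after seeding, either with one drug alone or with a fixed anchor-drug dose plus five library-drug doses (not always all listed) in √10 steps. After 5 days, cells were fixed and their nuclei stained in one step (final 0.05% Triton X-100, 1% formaldehyde, 1 ug/ml Hoechst), then counted on 4× images. Relative viability is the nuclei count in treated wells divided by that in vehicle wells. Values are medians of duplicate plates.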
# NCI-H2085 = tested on: NCI-H2085
# Outline: as §1
# NCI-H1299 = tested on: NCI-H1299
# Outline: as §1
# RERF-LC-KJ = tested on: RERF-LC-KJ
# Outline: as §1
# EBC-1 = tested on: EBC-1
# Outline: as §1
# HCC-44 = tested on: HCC-44
# Outline: as §1
# NCI-H1703 = tested on: NCI-H1703
# Outline: as §1
# Calu-6 = tested on: Calu-6
# Outline: as §1
# NCI-H2126 = tested on: NCI-H2126
# Outline: as §1
# EKVX = tested on: EKVX
# Outline: as §1
# A549 = tested on: A549
# Outline: as §1
# NCI-H1993 = tested on: NCI-H1993
# Outline: as §1
# IA-LM = tested on: IA-LM
# Outline: as §1
smiles,measurement,setting,value
COc1nc(C)cnc1NS(=O)(=O)c1cccnc1-c1ccc(-c2nnco2)cc1 [Zibotentan] + CS(=O)(=O)N1CCN(Cc2cc3nc(-c4cccc5[nH]ncc45)nc(N4CCOCC4)c3s2)CC1 [Pictilisib] (partner 1 µM),relative viability,ABC-1; first compound 0.08 µM,0.686
same,relative viability,ABC-1; first compound 0.253 µM,0.623
same,relative viability,ABC-1; first compound 0.8 µM,0.772
same,relative viability,ABC-1; first compound 2.53 µM,0.646
same,relative viability,NCI-H2085; first compound 0.08 µM,0.477
same,relative viability,NCI-H2085; first compound 0.253 µM,0.495
same,relative viability,NCI-H2085; first compound 0.8 µM,0.477
same,relative viability,NCI-H2085; first compound 2.53 µM,0.517
same,relative viability,NCI-H1299; first compound 0.08 µM,0.911
same,relative viability,NCI-H1299; first compound 0.253 µM,0.777
same,relative viability,NCI-H1299; first compound 0.8 µM,0.773
same,relative viability,NCI-H1299; first compound 2.53 µM,0.661
same,relative viability,RERF-LC-KJ; first compound 0.08 µM,0.484
same,relative viability,RERF-LC-KJ; first compound 0.253 µM,0.704
same,relative viability,RERF-LC-KJ; first compound 0.8 µM,0.593
same,relative viability,RERF-LC-KJ; first compound 2.53 µM,0.514
same,relative viability,EBC-1; first compound 0.08 µM,0.369
same,relative viability,EBC-1; first compound 0.253 µM,0.435
same,relative viability,EBC-1; first compound 0.8 µM,0.486
same,relative viability,EBC-1; first compound 2.53 µM,0.389
same,relative viability,HCC-44; first compound 0.08 µM,0.591
same,relative viability,HCC-44; first compound 0.253 µM,0.625
same,relative viability,HCC-44; first compound 0.8 µM,0.607
same,relative viability,HCC-44; first compound 2.53 µM,0.784
same,relative viability,NCI-H1703; first compound 0.08 µM,0.232
same,relative viability,NCI-H1703; first compound 0.253 µM,0.272
same,relative viability,NCI-H1703; first compound 0.8 µM,0.26
same,relative viability,NCI-H1703; first compound 2.53 µM,0.252
same,relative viability,Calu-6; first compound 0.08 µM,0.868
same,relative viability,Calu-6; first compound 0.253 µM,0.83
same,relative viability,Calu-6; first compound 0.8 µM,0.881
same,relative viability,Calu-6; first compound 2.53 µM,1.03
same,relative viability,NCI-H2126; first compound 0.08 µM,0.525
same,relative viability,NCI-H2126; first compound 0.253 µM,0.525
same,relative viability,NCI-H2126; first compound 0.8 µM,0.465
same,relative viability,NCI-H2126; first compound 2.53 µM,0.474
same,relative viability,EKVX; first compound 0.08 µM,0.465
same,relative viability,EKVX; first compound 0.253 µM,0.451
same,relative viability,EKVX; first compound 0.8 µM,0.439
same,relative viability,EKVX; first compound 2.53 µM,0.453
same,relative viability,A549; first compound 0.08 µM,0.478
same,relative viability,A549; first compound 0.253 µM,0.388
same,relative viability,A549; first compound 0.8 µM,0.57
same,relative viability,A549; first compound 2.53 µM,0.519
same,relative viability,NCI-H1993; first compound 0.253 µM,0.736
same,relative viability,NCI-H1993; first compound 0.8 µM,0.748
same,relative viability,NCI-H1993; first compound 2.53 µM,0.796
same,relative viability,IA-LM; first compound 0.253 µM,0.312
same,relative viability,IA-LM; first compound 0.8 µM,0.328
same,relative viability,IA-LM; first compound 2.53 µM,0.301
COc1nc(C)cnc1NS(=O)(=O)c1cccnc1-c1ccc(-c2nnco2)cc1 [Zibotentan] + C[C@@H](Oc1cc(-c2cnn(C3CCNCC3)c2)cnc1N)c1c(Cl)ccc(F)c1Cl [Crizotinib] (partner 1 µM),relative viability,ABC-1; first compound 0.08 µM,1.45
same,relative viability,ABC-1; first compound 0.253 µM,0.847
same,relative viability,ABC-1; first compound 0.8 µM,1.07
same,relative viability,ABC-1; first compound 2.53 µM,0.987
same,relative viability,NCI-H2085; first compound 0.08 µM,1.03
same,relative viability,NCI-H2085; first compound 0.253 µM,0.815
same,relative viability,NCI-H2085; first compound 0.8 µM,0.938
same,relative viability,NCI-H2085; first compound 2.53 µM,0.925
same,relative viability,NCI-H1299; first compound 0.08 µM,0.949
same,relative viability,NCI-H1299; first compound 0.253 µM,0.924
same,relative viability,NCI-H1299; first compound 0.8 µM,0.95
same,relative viability,NCI-H1299; first compound 2.53 µM,0.968
same,relative viability,RERF-LC-KJ; first compound 0.08 µM,0.921
same,relative viability,RERF-LC-KJ; first compound 0.253 µM,0.802
same,relative viability,RERF-LC-KJ; first compound 0.8 µM,0.786
same,relative viability,RERF-LC-KJ; first compound 2.53 µM,0.855
same,relative viability,EBC-1; first compound 0.08 µM,0.176
same,relative viability,EBC-1; first compound 0.253 µM,0.194
same,relative viability,EBC-1; first compound 0.8 µM,0.202
same,relative viability,EBC-1; first compound 2.53 µM,0.223
same,relative viability,HCC-44; first compound 0.08 µM,0.777
same,relative viability,HCC-44; first compound 0.253 µM,0.761
same,relative viability,HCC-44; first compound 0.8 µM,0.872
same,relative viability,HCC-44; first compound 2.53 µM,0.772
same,relative viability,NCI-H1703; first compound 0.08 µM,0.722
same,relative viability,NCI-H1703; first compound 0.253 µM,0.756
same,relative viability,NCI-H1703; first compound 0.8 µM,0.864
same,relative viability,NCI-H1703; first compound 2.53 µM,0.555
same,relative viability,Calu-6; first compound 0.08 µM,0.854
same,relative viability,Calu-6; first compound 0.253 µM,0.786
same,relative viability,Calu-6; first compound 0.8 µM,0.741
same,relative viability,Calu-6; first compound 2.53 µM,0.752
same,relative viability,NCI-H2126; first compound 0.08 µM,1.01
same,relative viability,NCI-H2126; first compound 0.253 µM,0.94
same,relative viability,NCI-H2126; first compound 0.8 µM,0.992
same,relative viability,NCI-H2126; first compound 2.53 µM,1.05
same,relative viability,EKVX; first compound 0.08 µM,0.875
same,relative viability,EKVX; first compound 0.253 µM,0.733
same,relative viability,EKVX; first compound 0.8 µM,0.848
same,relative viability,EKVX; first compound 2.53 µM,1.03
same,relative viability,A549; first compound 0.08 µM,0.932
same,relative viability,A549; first compound 0.253 µM,0.696
same,relative viability,A549; first compound 0.8 µM,0.742
same,relative viability,A549; first compound 2.53 µM,0.761
same,relative viability,NCI-H1993; first compound 0.253 µM,0.915
same,relative viability,NCI-H1993; first compound 0.8 µM,0.73
same,relative viability,NCI-H1993; first compound 2.53 µM,1.04
same,relative viability,IA-LM; first compound 0.08 µM,0.809
same,relative viability,IA-LM; first compound 0.253 µM,0.702
same,relative viability,IA-LM; first compound 0.8 µM,1.1
same,relative viability,IA-LM; first compound 2.53 µM,0.975
